Patent publication US12491187B2, “Use of MCT1 inhibitors to enhance insulin sensitivity” (H. LEE MOFFIT CANCER CENTER AND RESEARCH INSTITUTE, INC., priority 2022, dated 2025)

Test system: differentiated 3T3-L1 (WT) cells
Assay: Glucose uptake (Glucose Uptake-Glo) in WT adipocytes
Type: cell-based, murine
Conditions: RO-3306 (10 μM) co-treated with AZD3965 (1 μM)
Procedure: Glucose Uptake: 3T3-L1 cells were seeded and differentiated in clear bottom 96-well plates (Corning®). After differentiation, cells were treated with or without […] AZD3965 for 24 hr, 48 hr or 72 hr as illustrated in FIG. 7 (schematic outline of experimental procedure). The cells were incubated in serum free media the night before performing the assay. The following day/morning, media was changed to serum and glucose free media for 2 hr prior to the experiment. Cells were then stimulated with 175 nM Insulin or vehicle (PBS) for 30 minutes. Glucose Uptake was measured using the Glucose Uptake-Glo™ Assay (Promega®) according to the manufacturer's protocol. The data generated were normalized by dividing the relative luminescence units (RLU) measured in insulin stimulated wells by vehicle treated controls. The aforementioned experiment was repeated in the presence of the CDK1 inhibitor, RO-3306 (10 μM), where indicated (FIG. 5C).

O=C1NC(=NCc2cccs2)S/C1=C\c1ccc2ncccc2c1 [RO-3306]
insulin-stimulated glucose uptake under co-treatment: the effects of AZD3965 were attenuated
